Laboratory results: paper PMC12060349 (BMC Pharmacology & Toxicology, 2025)

Columns and labels:
[1] = test system: patients with advanced NSCLC with EGFR mutations; conditions: FLAURA clinical study; cited from earlier work
[2] = test system: healthy Chinese male subjects; test: Safety evaluation; type: in vivo, human (healthy Chinese male subjects)
[3] = test system: healthy Chinese male subjects; test: Safety evaluation; type: in vivo, human (healthy Chinese male subjects); conditions: Group 2

SMILES: C=CC(=O)Nc1cc(Nc2nccc(-c3cn(C)c4ccccc34)n2)c(OC)cc1N(C)CCN(C)C [Osimertinib]
- median overall survival [1]: 38.6 months

SMILES: CCC(C)n1ncn(-c2ccc(N3CCN(c4ccc(OCC5COC(Cn6cncn6)(c6ccc(Cl)cc6Cl)O5)cc4)CC3)cc2)c1=O (stereo not shown) [Itraconazole]
- subjects with TEAEs ([2]; Group 1, monotherapy phase with Itraconazole 200 mg QD): 42.9%
- subjects with TEAEs also related to Itraconazole ([2]; Group 1, 13 TEAEs in 10 subjects): 66.7%

SMILES: CO[C@H]1/C=C/O[C@@]2(C)Oc3c(C)c(O)c4c(O)c(c(/C=N/N5CCN(C)CC5)c(O)c4c3C2=O)NC(=O)/C(C)=C\C=C\[C@H](C)[C@H](O)[C@@H](C)[C@@H](O)[C@@H](C)[C@H](OC(C)=O)[C@@H]1C [Rifampicin]
- subjects with TEAEs also related to Rifampicin [3]: 20.0%
